Measured values published in publication PMC7815984 (Biochemical and biophysical research communications, 2020).

Experiments:
[1] = tested on: Human Umbilical Vein Endothelial Cells (HUVECs); assay: Endothelial cell tube formation assay
[2] = tested on: rat aortic ring microvessel outgrowth; assay: Rat aortic ring assay of angiogenesis; type: cell-based, Sprague Dawley rats
[3] = tested on: Human Umbilical Vein Endothelial Cells (HUVECs); details: 12.5–100 μM; cited from earlier work
[4] = molecular target: TBD (residues 319–425 of human CRBN) (Homo sapiens, UniProt Q96SW2); type: binding; details: competitive MST
Sequence of TBD (residues 319–425 of human CRBN) (Q96SW2 319-425): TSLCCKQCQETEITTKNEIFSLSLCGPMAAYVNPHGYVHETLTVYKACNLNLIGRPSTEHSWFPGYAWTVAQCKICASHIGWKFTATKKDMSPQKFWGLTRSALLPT

For `O=C1c2c(F)c(F)c(F)c(F)c2C(=O)N1c1ccc(F)cc1F` [CPS49], the “inhibition of tube formation compared with vehicle control (positive control)” value ([1]; 30 μM CPS49, HUVECs, 18 hours) was 89%.
For `O=C1CCC(N2C(=O)c3ccccc3C2=O)C(=O)N1` (stereo not shown) [Thalidomide, 2-phthalimidinoglutarimide], the “antiangiogenic activity in tube formation (in words)” value ([1]; 100 μM, HUVECs) is given as “did not demonstrate potent antiangiogenic activity”, the “microvessel outgrowth (in words)” value ([2]; 100 μM, 4 days) is given as “not significantly blocked” and the “tube formation, previous results (in words)” value [3] is given as “failed to significantly block tube formation”.
In the case of `CC(C)N1C(=O)NC(=O)C(C)(NC(=O)c2ccccc2)C1=O` (stereo not shown) [Gu3407, N-(1-Isopropyl-5-methyl-2,4,6-trioxo-hexahydropyrimidin-5-yl)benzamide], the “inhibition of tube formation at initial screening dose (in words)” value ([1]; 10 μM, HUVECs, 18 hours) was “no inhibition”, the “inhibition of tube formation over concentration range (in words)” value ([1]; 10–100 μM, HUVECs) was “no significant inhibition” and the “binding to TBD of human CRBN (in words)” value [4] was “did not show any binding”.
With `NC(=O)c1nnn(Cc2cc(Cl)c(C(=O)c3ccc(Cl)cc3)c(Cl)c2)c1N` [CAI, carboxyamidotriazole] the “suppression of angiogenesis (positive control)” value ([2]; 30 μM CAI, 4 days) was 95%.
In the case of `O=C1CCC(N2C(=O)c3c(F)c(F)c(F)c(F)c3C2=O)C(=O)N1` (stereo not shown) [Gu3041, 2-(2,6-Dioxo-3-piperidyl)-4,5,6,7-tetrafluoro-isoindoline-1,3-dione], the “tube formation over concentration range (in words)” value ([1]; 0.1–10 μM, HUVECs) was “reduced tube formation in a concentration-dependent manner”.
For `CO[C@@H]1[C@H](OC(=O)NC(=O)CCl)CC[C@]2(CO2)[C@H]1[C@@]1(C)O[C@@H]1CC=C(C)C` [TNP-470], the “suppression of angiogenesis (positive control)” value ([2]; 50 μM TNP-470, 4 days) was 92%.
